# Test results: article PMC9231250, “Cardio- and Neurotoxicity of Selected Anti-COVID-19 Drugs” (Pharmaceuticals, 2022)
# Where a name gives a salt, the structure may show the parent alone. Read-outs that look alike come from different tables or passages of the source.
# Columns and labels:
# hiPSC-CMs [1] = test system: hiPSC-CMs
# hiPSC-CMs [2] = experiment: Cardiotoxicity screen, CellTiter-Glo cell viability in hiPSC-derived cardiomyocytes; details: 24 h; for IC50: Homo sapiens, Cardiomyocyte, read-out: cardiotoxicity IC50; for cardiotoxicity (in words): hiPSC-CMs, CellTiter-Glo
# COVID-19 patients = details: cited from earlier work
# hiPSC-NEURs [3] = test system: hiPSC-NEURs
# hiPSC-NEURs [4] = experiment: Neurotoxicity screen, CellTiter-Glo cell viability in hiPSC-derived neurons; details: for IC50: Homo sapiens, Neuron
# [5] = test system: Huh7.5 (human epithelial-like) cells; details: Huh7.5 cells; cited from earlier work
# [6] = test system: Vero (African monkey epithelial) cells; details: cited from earlier work
# [7] = following the clinical dosing regimen; cited from earlier work
# [8] = 24 h, read-out: neurotoxicity IC50
# [9] = hiPSC-NEURs, 24 h, CellTiter-Glo
SMILES,cardiotoxicity (in words) (hiPSC-CMs [1]),IC50 (hiPSC-CMs [2]) [µM],"in-hospital mortality (COVID-19 patients; COVID-19 patients, 200 mg three times per day)",neurotoxicity (in words) (hiPSC-NEURs [3]),IC50 (hiPSC-NEURs [4]; [8]) [µM],further neurotoxicity on addition of azithromycin (hiPSC-NEURs [3]),cardiotoxicity (in words) (hiPSC-CMs [2]),cell toxicity [5],cell toxicity [6],neurotoxicity (in words) (hiPSC-NEURs [4]; [9]),"neurotoxicity (in words) (hiPSC-NEURs [4]; hiPSC-NEURs, 24 h, CellTiter-Glo, listed as Hydroxychloroquine)","further neurotoxicity on addition of azithromycin (hiPSC-NEURs [4]; hiPSC-NEURs, combined with 5 µM or 10 µM azithromycin, 24 h, CellTiter-Glo)","plasma concentration, lower end [7] [µM]","plasma concentration, upper end [7] [µM]",adverse effects on the cardiovascular system (COVID-19 patients),"IC50 (hiPSC-NEURs [4]; read-out: neurotoxicity, individual variability between individuals (lowest)) [µM]"
"CCOC(=O)c1c(CSc2ccccc2)n(C)c2cc(Br)c(O)c(CN(C)C)c12 [arbidol, arbidol hydrochloride]",Cardiotoxic,61,increased risk of in-hospital mortality,Neurotoxic,42,–,–,–,–,–,–,–,–,–,–,–
CCN(CC)CCCC(C)Nc1ccnc2cc(Cl)ccc12 (stereo not shown) [chloroquine],–,–,–,Neurotoxic,71,did not induce further neurotoxicity,–,–,–,–,–,–,–,–,–,–
CCN(CCO)CCCC(C)Nc1ccnc2cc(Cl)ccc12 (stereo not shown) [hydroxychloroquine],–,–,–,–,52,–,not cardiomyocytes,observe toxicity,observe toxicity,toxicity in neurons,Neurotoxic,did not induce further neurotoxicity,–,–,–,–
CCC(CC)COC(=O)[C@H](C)N[P@](=O)(OC[C@H]1O[C@@](C#N)(c2ccc3c(N)ncnn23)[C@H](O)[C@@H]1O)Oc1ccccc1 [remdesivir],–,51,–,–,41,–,Cardiotoxic,did not observe cell toxicity,did not observe cell toxicity,Neurotoxic,–,–,≥ 16.7,≤ 1700,"hypotension, atrial fibrillation rhythm, and sinus bradycardia",3
